Tests used:
[1] = Rancimat test, oxidative stability of lard; conditions: for Induction Time / Anti-oxidant Index: lard samples; for Anti-oxidant Index: lard negative control = 1.00
Description: The potential anti-oxidative properties of the seven compounds was also tested. Experiments were performed using the Rancimat method, a common method for measurement of anti-oxidant activity of both synthetic and natural anti-oxidants. The method is based on measuring changes in electrical conductivity of water caused by the formation of short-chain compounds when fats and oils are oxidized under elevated temperature and accelerated aeration. Using lard samples, the effects of each of the seven compounds on the oxidative stability of lard was determined. The anti-oxidative activity levels of the compounds isolated from blueberry are shown below in Table 1. The levels of anti-oxidant activity can be compared with a known anti-oxidant compound BHT.

[2] = tested on: HL-60 cells; test: Cytotoxicity in human leukemia cells (HL-60), tritiated thymidine uptake; type: cell-based; conditions: for IC50, inhibition of DNA synthesis (tritiated thymidine uptake): 90 minutes at 37 C
Description: The structure and identification of the seven isolated compounds was then determined using NMR. […] Verification after NMR was made by comparing mass spectra with the literature and by comparing the spectra with authentic compounds using thin layer chromatography. […] Using a well-established screening assay for cytotoxicity, the compounds were tested in a human leukemia cell line (HL-60) for their ability to inhibit growth of these cells in culture. This assay is routinely used by those of skill to determine the potential anti-carcinogenic activity of chemicals where anti-carcinogenic activity is correlated with growth inhibitory activity in HL-60 cells. Uptake of tritiated thymidine into cells, a measure of the level of DNA synthesis and thus cell growth, was determined in the cells both with and without the presence of each of the seven blueberry extract compounds.
HL-60 cells were cultivated in 1.62% RPMI 1640 medium supplemented with 10% fetal calf serum and 1% penicillin-streptomycin. The concentration of the cells in the medium was kept between 2 and 10×10^5 counts/ml. Cell concentrations were counted at the beginning of each experiment with a microscope. Cells were washed without antibiotics and collected by centrifugation. The cells were then diluted to 3×10^5 counts/ml with cold medium without antibiotics. Tritiated thymidine was mixed into the cold medium at a concentration of 150 Ci/mmol. The samples to be tested were dissolved in DMSO at concentrations between 0.1 g/L and 50 ug/L. A 2 microliter sample of each concentration was added to 6 ml tubes, using triplicate tubes for reproducibility. A 1 ml sample of the HL-60 cell culture was added to each tube, […]. The tubes were incubated at 37 C for 90 minutes and then cooled over ice. Cold PBS was added to each tube and they were centrifuged at 1000 rpm for 5 minutes. The supernatant was discarded and distilled water mixed with the cells. Free and bound tritiated thymidine levels were measured by scintillation counting.

[3] = tested on: human colon (HCT-8) tumor cells; conditions: cited from earlier work

SMILES | Induction Time [1] [h] | Anti-oxidant Index [1] | oxidation-inhibition activity (in words) [1] | inhibition of DNA synthesis / cell growth in HL-60 cells (in words) [2] | IC50, inhibition of DNA synthesis (tritiated thymidine uptake) [2] [ppm] | cytotoxicity (in words) [3]
Cc1cc(C(C)(C)C)c(O)c(C(C)(C)C)c1 [BHT, reference compound] | 5.8 | 2.76 |  |  |  | 
O=C(O)c1ccc(O)c(O)c1 [Protocatechuic Acid, protocatechuic acid] | 18.5 | 8.81 | high oxidation-inhibition activity |  |  | 
C[C@@H]1CC[C@]2(C(=O)O)CC[C@]3(C)C(=CC[C@@H]4[C@@]5(C)CC[C@H](O)C(C)(C)[C@@H]5CC[C@]43C)[C@@H]2[C@]1(C)O [3β,19α-Dihydroxy-urs-12-en-28-oic Acid, 3β,19α-dihydroxy-urs-12-en-28-oic acid] | 2.2 | 1.05 |  | effectively inhibit DNA synthesis | 1 | 
O=C(O)c1cc(O)c(O)c(O)c1 [Gallic Acid, gallic acid] | 28.1 | 13.38 | high oxidation-inhibition activity |  |  | 
CC[C@H](CC[C@@H](C)[C@H]1CC[C@H]2[C@@H]3CC=C4C[C@@H](O[C@@H]5O[C@H](CO)[C@@H](O)[C@H](O)[C@H]5O)CC[C@]4(C)[C@H]3CC[C@]12C)C(C)C [Sitosterol-β-D-glucoside, sitosterol-β-D-glucoside] | 2.4 | 1.14 |  |  |  | 
C[C@H]1[C@H](C)CC[C@]2(C(=O)O)CC[C@]3(C)C(=CC[C@@H]4[C@@]5(C)CC[C@H](O)C(C)(C)[C@@H]5CC[C@]43C)[C@H]12 [Urosolic Acid, urosolic acid] | 2.2 |  |  | effectively inhibit DNA synthesis | 1.5 | marginal cytotoxicity
COc1cc(C(=O)O)cc(OC)c1O [Syringic Acid, syringic acid] | 3.1 | 1.48 |  |  |  | 
O=Cc1ccc(CO)o1 [5-Hydroxymethyl-2-furfural, 5-hydroxymethyl-2-furfural] | 2.1 | 1.00 |  |  |  | 
